The text below walks through data of ChEMBL document CHEMBL6092207 (J Med Chem, 2024).

The term Ki denotes a dissociation constant, usually derived from enzyme kinetics or from competition with a known ligand.

Assay [1] can be described thus: Binding affinity to SARS-CoV-2 Omicron main protease P132H mutant expressed in Escherichia coli assessed as dissociation constant using fluorogenic substrate incubated for 90 mins by fluorescence based analysis. Also noted: species or system Severe acute respiratory syndrome coronavirus 2.
Assay [2] in a line: Binding affinity to SARS-CoV-2 main protease E166 V mutant expressed in Escherichia coli assessed as dissociation constant using fluorogenic substrate incubated for 90 mins by fluorescence based analysis. Also noted: species or system Severe acute respiratory syndrome coronavirus 2.

Take `CC(C)(C)[C@H](NC(=O)C(F)(F)F)C(=O)N1C[C@H]2[C@@H]([C@H]1C(=O)N[C@H](C#N)C[C@@H]1CCNC1=O)C2(C)C`: the Ki in assay [1] was 1 nM; in assay [2], more than 5000 nM.
The like results for `CN1C(=O)C[C@H]2CC3(CC3)CN2C(=O)c2cncc(c2)NCCCCCCNC(=O)[C@H]1Cc1ccc(Cl)cc1Cl` were, in that order, less than 1 nM and 12 nM.
The matching figures for `CN1C(=O)C[C@H]2CC3(CC3)CN2C(=O)c2cncc(c2)NCCC/C=C/CNC(=O)[C@H]1Cc1ccc(Cl)cc1Cl`: less than 1 nM and 11 nM.
The matching figures for `CNC[C@@H](Cc1ccc(Cl)cc1)N(C)C(=O)C[C@H]1CCCN1C(=O)c1cncc2ccccc12`: 35 nM and 1200 nM.
